Measurements: patent publication US20210000981A1, “CONJUGATED POLYCATIONIC POLYMERS, METHODS OF USING THE SAME AND METHODS OF TREATING AUTOIMMUNE DISEASES, INFECTIOUS DISEASES AND ACUTE RADIATION EXPOSURE” (Duke University, priority 2015, published 2021)

Experiments:
NZBW F1 mice = details: mouse, in vivo
DNA in plasmid form = test: Plasmid DNA binding and LMWH displacement, agarose gel; details: 60° C. with agitation
Method: Using the biotinylated form of the polymer we have established a protocol to displace the DAMPs that are bound to the polymer using low-molecular weight heparin (LMWH). This method was validated by electrophoretic mobility shift assay (EMSA) and TLR stimulation.
(§1) DNA in plasmid form was bound to PAMAM-G3 via co-incubation at room temperature. […] LMWH displacement was executed at 60° C. with agitation of the DNA-polymer complex.

TLR = TLR reporter cell assays with DNA-polymer complex and LMWH; assay type: cell-based
Method: as §1

[1] = tested on: NA-sensing TLRs (TLR3, 7, 8 and 9); test: Inhibition of nucleic acid based TLR agonists by NASs; details: in vitro and in vivo

[NH2(CH2)2NH2]:(G=3); dendri PAMAM(NH2)32 [PAMAM-G3]
maximum tolerated dose (MTD) (NZBW F1 mice): 100 to 200 mg/kg

low-molecular weight heparin [LMWH]
displacement of DNA from DNA-polymer complex (DNA in plasmid form): Displacement of the DNA was also verified | TLR activation after displacement of DNA from polymer (TLR): elevated TLR activation | TLR activation, alone (TLR): no activation alone

protamine sulfate
activities of nucleic acid based TLR agonists (CpG oligos, Poly I:C, ssRNA40/LyoVec) [1]: counteract the activities of multiple nucleic acid based TLR agonists in vitro and in vivo
